Measurements reported in paper PMC7502707, “Characterization and validation of a preventative therapy for hypertrophic cardiomyopathy in a murine model of the disease” (Proceedings of the National Academy of Sciences of the …, 2020).
Marks after values point to notes of the source that are not given here.

Key:
[1] = tested on: mice expressing β-MHC mutations; conditions: precardiomyopathic mice expressing β-MHC mutations, compared to untreated mutants; cited from earlier work
Excerpt: Patients with HCM often present with early hypercontractility that stems from a high-degree of actin–myosin cross-linking ([36]). […] Recent studies have investigated the efficacy of a cardiac-specific small-molecule, Mavacamten (MYK-461), that inhibits β-MHC/actin binding and subsequently reduces sarcomere force output and contractility ([39], [40]), as a potential HCM therapeutic. Treatment of precardiomyopathic mice expressing β-MHC mutations with M ...

wt mice = assay: Echocardiography of treated wt mice; type: in vivo, mouse; conditions: 25-wk-old wt mice, 10 μM i.p. 3×/wk/5 wk from 20 wk; mean, n = 4
Procedure: (§1) Male mice expressing the human cTnI gene encoding the human disease-causing mutation cTnI-G203S were used for all studies. The mice develop hallmark features of HCM by 21 wk ([7], [13]). Male mice expressing the normal human cTnI gene were used as controls (wt). Ten-week-old mice were used for in vitro studies. For in vivo studies, 20- or 30-wk-old cTnI-G203S mice were treated with 10 μM AID-TAT or AID[S]-TAT via intraperitoneal injection, 3×/wk/5 wk. In vivo dose of AID-TAT or AID[S]-TAT (10 μM) was calculated based on blood volume, equating to ∼2 mg/kg total BW. Male animal models were used to eliminate potential differences in responses due to sex. Experiments were performed in a total of 21 wt (AID[S]-TAT), 6 wt (AID-TAT), 15 cTnI-G203S (AID[S]-TAT), and 26 cTnI-G203S (AID-TAT) mice. All animals were randomly assigned to treatment groups. All animal studies were approved by the Animal Ethics Committee of The University of Western Australia in accordance with the 2013 Australian Code for the Care and Use of Animals for Scientific Purposes ([58]).
(§2) Echocardiographic measurement of left ventricular function were performed on mice under light methoxyflurane anesthesia using an i13L probe on a Vivid 7 Dimension ultrasound system (GE Healthcare), as previously described ([13], [29], [30]). Each n represents the average of quantitative measurements from wt or cTnI-G203S mice for each treatment group. Detailed methods are provided in SI Appendix.
(§3) Echocardiographic measurement of left ventricular function were performed on mice under light methoxyflurane anesthesia using an i13L probe on a Vivid 7 Dimension ultrasound system (GE Healthcare, Little Chalfont, United Kingdom) as previously described (4, 7). Echocardiographic measurements were taken on M-mode in triplicate from separate mice at a sweep speed of 200 mm/s. Each n represents the average of quantitative measurements from wt or cTnI-G203S mice for each treatment group. Measurements of left ventricular end diastolic diameter (LVEDD), left ventricular end systolic diameter (LVESD), fractional shortening (FS), left ventricular posterior wall in diastole (LVDPW), left ventricular posterior wall in systole (LVSPW), interventricular septum in diastole (IVSD), interventricular septum in systole (IVSS) and end diastolic diameter (EDD) were made. FS was calculated by the formula [(LVEDD-LVESD)/EDD] x 100. […]
(§4) (BioAssay Systems, Hayward CA). All assays were performed as per manufacturer’s instructions, using a spectrophotometer (PowerWave XS).

[2] = tested on: myocytes isolated from wt and cTnI-G203S mice; assay: Confocal imaging of F-actin (phalloidin) in myocytes from treated mice; type: in vivo, mouse; conditions: myocytes from cTnI-G203S mice treated 10 μM 3×/wk/5 wk, Pre HCM Rx
Procedure: Following completion of treatment regimens, myocytes were isolated and prepared for confocal imaging based on previously described methods ([29]). Detailed methods are provided in SI Appendix.
Echocardiographic measurement of left ventricular function were performed on mice under light methoxyflurane anesthesia using an i13L probe on a Vivid 7 Dimension ultrasound system (GE Healthcare, Little Chalfont, United Kingdom) as previously described (4, 7). Echocardiographic measurements were taken on M-mode in triplicate from separate mice at a sweep speed of 200 mm/s. Each n represents the average of quantitative measurements from wt or cTnI-G203S mice for each treatment group. […] FS was calculated by the formula [(LVEDD-LVESD)/EDD] x 100.
Cell size was determined as previously described (16). […]
To measure kidney toxicity, urea and creatinine concentration was assessed using QuantiChrom Urea and Creatinine assay kits respectively (BioAssay Systems, Hayward CA). To measure liver toxicity, alanine transaminase (ALT) and aspartate transaminase (AST) concentration was measured using Alanine Transaminase and Aspartate Transaminase assay kits respectively (BioAssay Systems, Hayward CA). […]

cTnI-G203S mice = assay: Echocardiography of treated cTnI-G203S mice; type: in vivo, mouse; conditions: Pre-HCM treatment (from 20 wk), 25-wk-old cTnI-G203S mice, 10 μM i.p. 3×/wk/5 wk; mean, n = 7 AID(S)-TAT, n = 6 AID-TAT
Procedure: as §1, §2, §3, §4

[3] = tested on: myocytes isolated from wt and cTnI-G203S mice; assay: MTT assay (formation of formazan) in myocytes isolated from treated mice; type: in vivo, mouse; conditions: for effect on BayK(−)-induced increase in metabolic activity (MTT): applied to myocytes from treated mice, nisoldipine 15 μM, Ru360 15 µM, dantrolene 20 µM; for effect on metabolic activity (MTT): myocytes from wt or cTnI-G203S mice treated with AID(S)-TAT or AID-TAT, oligomycin 20 µM
Procedure: The rate of reduction of MTT (Sigma-Aldrich) to formazan by the mitochondrial electron transport chain was measured in intact mouse cardiac myocytes, as previously described ([22], [25]). Each n represents number of replicates for each treatment group from cardiac myocytes isolated from a total of six wt [AID(S)-TAT], four cTnI-G203S [AID(S)-TAT], and three (AID-TAT) mice. Detailed methods are provided in SI Appendix. […]
The rate of reduction of 3-(4,5-Dimethyl-2-thiazolyl)-2,5-diphenyl-2H-tetrazolium bromide (MTT, Sigma-Aldrich, St. Louis, Missouri) to formazan by the mitochondrial electron transport chain was measured in intact mouse cardiac myocytes as previously described (1, 9). This reaction is dependent upon the presence of reduced nicotinamide adenine dinucleotide (NADH) and reduced nicotinamide adenine dinucleotide phosphate (NADPH), and intact mitochondrial electron transport (10). Cardiac myocytes were treated with relevant drugs in 96 well plates. MTT was added to each well to a final concentration of 0.5 mg/ml and the rate of the increase in absorbance immediately measured using a spectrophotometer at 37°C (PowerWave XS, 570 nm, reference wavelength of 620 nm). The rate of the increase in absorbance in response to treatments was expressed as a percentage of the rate of the increase prior to the addition of treatments. Each n represents number of replicates for each treatment group from cardiac myocytes isolated from a total of 6 wt (AID[S]- TAT), 4 cTnI-G203S (AID[S]-TAT), and 3 (AID-TAT) mice.
Immunoblot of ICa-L protein

[4] = tested on: myocytes isolated from wt and cTnI-G203S mice; assay: Flavoprotein oxidation in myocytes isolated from treated mice; type: in vivo, mouse; conditions: applied to myocytes from treated wt or cTnI-G203S mice; nisoldipine 15 μM
Procedure: (§5) Male mice expressing the human cTnI gene encoding the human disease-causing mutation cTnI-G203S were used for all studies. […] Male mice expressing the normal human cTnI gene were used as controls (wt). Ten-week-old mice were used for in vitro studies. For in vivo studies, 20- or 30-wk-old cTnI-G203S mice were treated with 10 μM AID-TAT or AID[S]-TAT via intraperitoneal injection, 3×/wk/5 wk. In vivo dose of AID-TAT or AID[S]-TAT (10 μM) was calculated based on blood volume, equating to ∼2 mg/kg total BW. Male animal models were used to eliminate potential differences in responses due to sex. Experiments were performed in a total of 21 wt (AID[S]-TAT), 6 wt (AID-TAT), 15 cTnI-G203S (AID[S]-TAT), and 26 cTnI-G203S (AID-TAT) mice. All animals were randomly assigned to treatment groups.
Fluorescence was measured on a Hamamatsu Orca ER digital camera attached to an inverted Nikon TE2000-U microscope. […]
Additionally, individual 580 nm and 535 nm wavelength signals were assessed in each experiment to determine whether the fluorescent indicator was accurately measuring m. […] Ratiometric JC-1 or flavoprotein fluorescent signals were quantified by manually tracing myocytes and subtracting an equivalent background region […]

[5] = tested on: myocytes isolated from wt and cTnI-G203S mice; assay: Mitochondrial membrane potential (JC-1) in myocytes isolated from treated mice; type: in vivo, mouse
Procedure: as §5
Fluorescence was measured on a Hamamatsu Orca ER digital camera attached to an inverted Nikon TE2000-U microscope. Fluorescent indicator 5,5′,6,6′-tetrachloro-1,1′,3,3′-tetraethylbenzimidazolylcarbocyanine iodide was used to measure Ψm in cardiac myocytes, as previously described (JC-1, Molecular Probes) ([61]). Autofluorescence was used to measure flavoprotein oxidation in cardiac myocytes based on previously described methods ([13], [29], [62]). Responses to drugs were reported as a percentage increase from the basal average.
Cells were incubated in calcium-free HBS (supplemented with 3 mM EGTA and 200 nM JC-1) for at least 3 h prior to measuring changes in m. Sodium cyanide (NaCN, 40 mM, mitochondrial electron transport blocker) was added at the end of each experiment to collapse m, confirming that the JC-1 signal was indicative of m.
Additionally, individual 580 nm and 535 nm wavelength signals were assessed in each experiment to determine whether the fluorescent indicator was accurately measuring m. Autofluorescence was used to measure flavoprotein oxidation in cardiac myocytes based on previously described methods (ex = 480 nm, em = 535 nm, interval = 1 min, exposure = 1.5 seconds) (4, 6, 7). Carbonyl cyanide-4-(trifluoromethoxy)phenylhydrazone (FCCP, 50 μM, mitochondrial electron transport chain uncoupler) was added at the end of each experiment to increase flavoprotein oxidation confirming signal was mitochondrial in origin. Ratiometric JC-1 or flavoprotein fluorescent signals were quantified by manually tracing myocytes and subtracting an equivalent background region
Responses to drugs were reported as a percentage increase from the basal average. […]

## CC(C)n1c(=O)cc(N[C@@H](C)c2ccccc2)[nH]c1=O [MYK-461, Mavacamten]
[1]
  left ventricular wall thickness, FS, fibrosis and myocyte organization: reduce left ventricular wall thickness, FS, and fibrosis, and improve myocyte organization

## QKILGEWDLAQYTDQELE [AID(S)-TAT, reference compound]
Wt mice
  FS: 35.08%
  HW:BW: 4.33 mg/g
  IVSD: 0.76 mm
  IVSS: 0.86 mm
  LVDPW: 1.26 mm
  LVEDD: 3.56 mm
  LVESD: 2.31 mm
  LVSPW: 1.42 mm
[2]
  F-actin organization: F-actin disorganization
cTnI-G203S mice
  FS: 47.39 ^* %
  HW:BW: 5.14 ^* mg/g
  IVSD: 0.85 ^* mm
  IVSS: 0.96 ^* mm
  LVDPW: 1.31 mm
  LVEDD: 3.08 ^* mm
  LVESD: 1.62 ^* mm
  LVSPW: 1.43 mm

## Ru360
[3]
  effect on BayK(−)-induced increase in metabolic activity (MTT): attenuated

## CC[C@H]1/C=C/C=C/C[C@@H](C)[C@H](O)[C@@](C)(O)C(=O)[C@@H](C)[C@H](O)[C@@H](C)C(=O)[C@@H](C)[C@H](O)[C@@H](C)/C=C/C(=O)O[C@@H]2[C@H](C)[C@H](CC1)O[C@]1(CC[C@H](C)[C@H](C[C@@H](C)O)O1)[C@H]2C [Oligomycin]
[3]
  effect on metabolic activity (MTT): significant decrease in metabolic activity

## COC(=O)C1=C(C)NC(C)=C(C(=O)OCC(C)C)C1c1ccccc1[N+](=O)[O-] (centres unmarked) [nisoldipine, reference compound]
[4]
  effect on BayK(−)-induced increase in flavoprotein oxidation: attenuated
[5]; applied to myocytes from treated wt or cTnI-G203S mice, nisoldipine 15 μM
  effect on BayK(−)-induced increase in Ψm: attenuated
[3]
  effect on BayK(−)-induced increase in metabolic activity (MTT): attenuated

## COC(=O)C1=C(C)NC(C)=C([N+](=O)[O-])C1c1ccccc1C(F)(F)F (stereo not drawn) [BayK(+), reference compound]
[5]; myocytes from wt or cTnI-G203S mice treated with AID(S)-TAT or AID-TAT
  effect on Ψm: did not significantly alter Ψm
[3]
  effect on metabolic activity (MTT): did not significantly alter metabolic activity

## O=C1CN(/N=C/c2ccc(-c3ccc([N+](=O)[O-])cc3)o2)C(O)=N1 [dantrolene]
[3]
  effect on BayK(−)-induced increase in metabolic activity (MTT): but not with ryanodine receptor blocker dantrolene
